Among the data in patent US20250064789A1, “KETOAMIDE DERIVATIVES AND PHARMACEUTICAL USES THEREOF” (priority 2022, published 2025) are IC50 values, retold here.

The target in the first test is recombinant SARS-CoV-2 M^pro (Severe acute respiratory syndrome coronavirus 2 (2019-nCoV) (SARS-CoV-2), UniProt P0DTD1). Put plainly: Inhibition of SARS-CoV-2 M^pro enzyme activity (fluorescent substrate assay). The format is biochemical. Particulars: IC50, inhibition of SARS-CoV-2 M^pro enzyme activity; values in nM.
For orientation: IC50 means the concentration at which inhibition is half-maximal. Regarding `C[C@@H](NC(=O)C(C)(C)Oc1ccc([Si](C)(C)C)cc1Cl)C(=O)N[C@H](Cc1ccccc1)C(=O)C(=O)NCc1ccccn1` [Compound 81], the IC50 is 27.9 ± 5.5 nM.

The test is the same for the next values; noted with them: inhibition of SARS-CoV-2 M^pro enzyme activity; values given in μM; read-out: IC50.
For `O=C(NCc1ncon1)C(=O)[C@@H](Cc1ccccc1)NC(=O)c1ccccc1` [Compound 460], the IC50 came out at 53000 ± 3340 nM. `C[C@@H](OCc1ccccc1)C(=O)N[C@H](Cc1ccccc1)C(=O)C(=O)N(C)Cc1ccccn1` [Compound 41]: the half-maximal inhibitory concentration (IC50) is more than 2500 nM. `O=C(NCc1nccs1)C(=O)[C@@H](Cc1cccc(Cl)c1)NC(=O)c1ccccc1` [Compound 469]: the IC50 was 1430 ± 150 nM.

On to `O=C(NCc1nccs1)C(=O)[C@@H](Cc1ccc(Cl)c(Cl)c1)NC(=O)c1ccccc1` [Compound 470], for which the IC50 turned out to be 2030 ± 70 nM.

For the compound `O=C(Cn1cc(-c2ccc(OC(F)(F)F)cc2)cn1)N[C@H](Cc1ccccc1)C(=O)C(=O)NCc1nccs1` [Compound 495], the 50% inhibitory concentration (IC50) turned out to be 2270 ± 90 nM.

The test is the same for the next values; noted with them: inhibition of SARS-CoV-2 M^pro enzyme activity; values in nM; read-out: IC50.
Regarding `CC(C)(NC(=O)NC1CCC(F)(F)CC1)C(=O)N[C@H](Cc1ccccc1)C(=O)C(=O)NCc1ccccn1` [Compound 301], the IC50 was found to be 9.2 ± 0.4 nM. Consider `CC1(C)C(C(=O)NC2(C(=O)N[C@H](Cc3ccccc3)C(=O)C(=O)NCc3ccccn3)CCC2)C1(C)C` [Compound 192], for which the IC50 stood at 25.4 ± 0.9 nM. Take `CC(C)[C@@H](OCc1ccc(F)cc1)C(=O)N[C@H](Cc1ccccc1)C(=O)C(=O)NCc1ccccn1` [Compound 26]: the IC50 was 13.9 ± 0.2 nM. As to `COc1ccnc(CNC(=O)C(=O)[C@@H](Cc2ccccc2)NC(=O)[C@@H](C)NC(=O)C2CCC(F)(F)CC2)c1` [Compound 342], the IC50 came to 22.2 ± 0.2 nM. Same read-out and setting: the figure for `O=C(CC1CCC(F)(F)CC1)NCC(=O)N[C@H](Cc1ccccc1)C(=O)C(=O)NCc1nccs1` [Compound 390] is 21.8 ± 1.1 nM; for `C[C@@H](NC(=O)c1ccn(-c2ccccc2)n1)C(=O)N[C@H](Cc1ccccc1)C(=O)C(=O)NCc1nccs1` [Compound 381] it is 416.8 ± 4 nM; for `O=C(NCc1ccccn1)C(=O)[C@@H](Cc1ccccc1)NC(=O)[C@H]1CCCCN1C(=O)[C@H]1CC[C@@H](C(F)(F)F)CC1` [Compound 281] it is 14.8 ± 0.1 nM. With `O=C(NCc1cscn1)C(=O)[C@@H](Cc1ccccc1)NC(=O)[C@H]1COCCN1C(=O)CC1CC1(F)F` (stereo partly shown) [Compound 435], the IC50 was 58.2 ± 1.3 nM. As to `CC(C)(C)OC(=O)N1CC(NC(=O)C2CCC(F)(F)CC2)(C(=O)N[C@H](Cc2ccccc2)C(=O)C(=O)NCc2ccccn2)C1` [Compound 225], the half-inhibitory concentration (IC50) came to 38.2 ± 3 nM. On the same count and under the same terms, with `O=C(NCc1cscn1)C(=O)[C@@H](Cc1ccccc1)NC(=O)[C@H]1COCCN1C(=O)CC1CC(F)(F)C1` [Compound 436] the figure was 171 ± 2.4 nM; with `O=C(NCc1ccccn1)C(=O)[C@@H](Cc1ccccc1)NC(=O)[C@H]1COCCN1C(=O)CCC1CCC(F)(F)CC1` [Compound 291], 13.1 ± 2.8 nM. Take `O=C(NCc1ccccn1)C(=O)[C@@H](Cc1ccccc1)NC(=O)[C@@H](CC1CCCCC1)NC(=O)C1CCC(F)(F)CC1` [Compound 220]: the IC50 is 13.9 ± 0.1 nM. On the same count and under the same terms, with `O=C(NCc1ccccn1)C(=O)[C@@H](Cc1ccccc1)NC(=O)C1(NC(=O)c2cnccn2)CC1` [Compound 158] the figure was 252 ± 9 nM; with `C[C@@H](NC(=O)c1ccc(F)cc1)C(=O)N[C@H](Cc1ccccc1)C(=O)C(=O)NCc1ccccn1` [Compound 140], 15.5 ± 1 nM. Still for that read-out and setting: with `C[C@H](c1ccccc1)N1C[C@H](C(=O)N[C@H](C)C(=O)N[C@H](Cc2ccccc2)C(=O)C(=O)NCc2ccccn2)CC1=O` [Compound 124] the figure was 45.1 ± 0.6 nM; with `CC(C)(C(=O)N[C@H](Cc1ccccc1)C(=O)C(=O)NCc1nccs1)n1cc(-c2cccc(F)c2)cn1` [Compound 528], 50.8 ± 1 nM.

Consider `O=C(COC1CCCC1)NC1(C(=O)N[C@H](Cc2ccccc2)C(=O)C(=O)NCc2ccccn2)CCC1` [Compound 207], for which the IC50 was found to be 46.1 ± 0.9 nM. Same read-out and setting: with `O=C(NCc1ccccn1)C(=O)[C@@H](Cc1ccccc1)NC(=O)C1(NC(=O)C2CCOCC2)CCC1` [Compound 191] the figure was 73 ± 4.5 nM; with `C[C@@H](NC(=O)c1ccccc1F)C(=O)N[C@H](Cc1ccccc1)C(=O)C(=O)NCc1ccccn1` [Compound 138], 48.6 ± 0.4 nM.

Take `O=C(NCc1ccccn1)C(=O)[C@@H](Cc1ccccc1)NC(=O)[C@H]1COCCN1C(=O)[C@@H]1C[C@@H]2[C@H](C1)C2(F)F` [Compound 293]: the IC50 is 16.4 ± 1.1 nM. On the same count and under the same terms, with `C[C@@H](OCc1cccc(OC(F)(F)F)c1)C(=O)N[C@H](Cc1ccccc1)C(=O)C(=O)NCc1ccccn1` [Compound 5] the figure was 15.4 ± 0.7 nM.

For the compound `CC(C)(NC(=O)C1CCC(F)(F)CC1)C(=O)N[C@H](Cc1ccccc1)C(=O)C(=O)NCc1nccs1` [Compound 537], the IC50 is 89.5 ± 1.5 nM.

Turning to `COC[C@@H](NC(=O)C1CCCC(F)(F)C1)C(=O)N[C@H](Cc1ccccc1)C(=O)C(=O)NCc1ccccn1` (stereo partly shown) [Compound 557], the half-maximal inhibitory concentration (IC50) is 26.1 ± 0.4 nM. On the same count and under the same terms, the figure for `CC(C)(OCc1ccc(F)cc1)C(=O)N[C@H](Cc1ccccc1)C(=O)C(=O)NCc1nccs1` [Compound 484] is 95.7 ± 1.5 nM; for `O=C(NCc1ccccn1)C(=O)[C@@H](Cc1ccccc1)NC(=O)[C@H]1CC(F)(F)CN1C(=O)CC1CCC(F)(F)CC1` [Compound 276] it is 13 ± 0.8 nM. `CC(C)(C(=O)N[C@H](Cc1ccccc1)C(=O)C(=O)NCc1ccccn1)n1cc(Br)cn1` [Compound 327]: the half-inhibitory concentration (IC50) was determined as 245 ± 2.7 nM. Same read-out and setting: the figure for `C[C@@H](OCc1ccc(F)cc1)C(=O)N[C@H](Cc1ccccc1)C(=O)C(=O)NCc1ccc(Cl)cn1` [Compound 42] is 17.6 ± 0.4 nM.

Regarding `CC(Oc1ccc(C2CC2(Cl)Cl)cc1)C(=O)N[C@H](C)C(=O)N[C@H](Cc1ccccc1)C(=O)C(=O)NCc1ccccn1` (stereo partly shown) [Compound 97], the IC50 is 37.2 ± 4.8 nM. Turning to `O=C(Cn1cc(-c2ccccc2F)nn1)N[C@H](Cc1ccccc1)C(=O)C(=O)NCc1nccs1` [Compound 532, (R)-3-(2-(4-(2-fluorophenyl)-1H-1,2,3-triazol-1-yl)acetamido)-2-oxo-4-phenyl-N-(thiazole-2-ylmethyl)butyramide], the IC50 is 624.5 ± 2.6 nM. Same read-out and setting: with `O=C(NCc1ccccn1)C(=O)[C@@H](Cc1ccccc1)NC(=O)[C@@H](Cc1ccccn1)NC(=O)C1CCC(F)(F)CC1` [Compound 217] the figure was 27.3 ± 1.2 nM. On the same count and under the same terms, with `Cc1nn(CC(=O)N[C@H](Cc2ccccc2)C(=O)C(=O)NCc2nccs2)c(C)c1C1CCC(F)(F)CC1` [Compound 509] the figure was 151 ± 6.6 nM; with `C[C@@H](OCc1ccc(Cl)c(Cl)c1)C(=O)N[C@H](Cc1ccccc1)C(=O)C(=O)NCc1ccc(Cl)cn1` [Compound 44], 21.7 ± 2.1 nM. On the same count and under the same terms, the figure for `O=C(CNC(=O)C1CCCCCC1)N[C@H](Cc1ccccc1)C(=O)C(=O)NCc1cscn1` [Compound 426] is 9.4 ± 0.1 nM.

As to `CC[C@@H](C)[C@@H](NC(=O)C1CCC(F)(F)CC1)C(=O)N[C@H](Cc1ccccc1)C(=O)C(=O)NCc1ccccn1` [Compound 221], the IC50 stood at 15.6 ± 1.2 nM. As to `COC[C@@H](NC(=O)[C@H]1CC[C@@H](F)CC1)C(=O)N[C@H](Cc1ccccc1)C(=O)C(=O)NCc1nccs1` [Compound 399], the IC50 is 32.8 ± 1.5 nM. On to `O=C(NCc1ccccn1)C(=O)[C@@H](Cc1ccccc1)NC(=O)[C@H]1Cc2ccccc2CN1C(=O)N1CCC(F)(F)CC1` [Compound 311], for which the IC50 is 16.7 ± 0.6 nM. Same read-out and setting: with `O=C(NCc1nccs1)C(=O)[C@@H](Cc1ccccc1)NC(=O)[C@H]1COCCN1C(=O)[C@@H]1C[C@@H]2[C@H](C1)C2(F)F` [Compound 412] the figure was 24.8 ± 0.8 nM; with `O=C(NCc1ccccn1)C(=O)[C@@H](Cc1ccccc1)NC(=O)C1(NC(=O)c2cc(C(F)(F)F)[nH]n2)CCC1` [Compound 198], 18.1 ± 2.7 nM. As to `C[C@@H](NC(=O)C1CC1c1ccccc1)C(=O)N[C@H](Cc1ccccc1)C(=O)C(=O)NCc1ccccn1` (stereo partly shown) [Compound 104], the IC50 is 16.8 ± 1.1 nM. In the case of `O=C(NCc1ccccn1)C(=O)[C@@H](Cc1ccccc1)NC(=O)[C@H]1Cc2ccccc2CN1C(=O)OC1CCC(F)(F)CC1` [Compound 312], the IC50 amounted to 14.5 ± 0.1 nM. Same read-out and setting: the figure for `C[C@@H](NC(=O)Cc1cc(F)cc(F)c1)C(=O)N[C@H](Cc1ccccc1)C(=O)C(=O)NCc1ccccn1` [Compound 79] is 10.9 ± 0.1 nM; for `CC(C)(NC(=O)N1CCC(F)(F)CC1)C(=O)N[C@H](Cc1ccccc1)C(=O)C(=O)NCc1ccccn1` [Compound 302] it is 41.5 ± 0.9 nM.

In the case of `CN(C(=O)C1CCC(F)(F)CC1)C1(C(=O)N[C@H](Cc2ccccc2)C(=O)C(=O)NCc2ccccn2)CCC1` [Compound 194], the IC50 worked out at 387 ± 30 nM. On the same count and under the same terms, the figure for `O=C(NCc1ccccn1)C(=O)[C@@H](Cc1ccccc1)NC(=O)[C@H]1CCCCN1C(=O)CCC1CCC(F)(F)CC1` [Compound 285] is 17.1 ± 0.2 nM; for `O=C(NCc1ccccn1)C(=O)[C@@H](Cc1ccccc1)NC(=O)C1(NC(=O)C2CCC(F)(F)CC2)CCCC1` [Compound 239] it is 32.2 ± 1 nM; for `O=C(Cn1cc(-c2cc(F)c(F)c(F)c2)cn1)N[C@H](Cc1ccccc1)C(=O)C(=O)NCc1nccs1` [Compound 504] it is 47.7 ± 0.9 nM.

Take `C[C@@H](NC(=O)c1ccc(F)cc1)C(=O)N[C@H](Cc1ccccc1)C(=O)C(=O)NCc1ccc(Cl)cn1` [Compound 59]: the IC50 came out at 26.6 ± 1.8 nM.

As for `O=C(NCc1ccccn1)C(=O)[C@@H](Cc1ccccc1)NC(=O)C12CC(CN1C(=O)C1CCC(F)(F)CC1)C2` [Compound 274], the IC50 came to 910.8 ± 6.5 nM. For `O=C(CNC(=O)C1CCC(F)(F)CC1)N[C@H](Cc1ccccc1)C(=O)C(=O)NCc1cscn1` [Compound 421], the IC50 turned out to be 20.7 ± 0.5 nM. Still for that read-out and setting: with `O=C(CN1C(=O)CN(c2cccc(Cl)c2)C1=O)N[C@H](Cc1ccccc1)C(=O)C(=O)NCc1nccs1` [Compound 527] the figure was 44.3 ± 1.1 nM.

Consider `CC(C)(NC(=O)c1ccc(F)c(OC(F)(F)F)c1)C(=O)N[C@H](Cc1ccccc1)C(=O)C(=O)NCc1ccccn1` [Compound 184], for which the IC50 worked out at 13.3 ± 0.2 nM. In the case of `O=C(NCc1nccs1)C(=O)[C@@H](Cc1ccccc1)NC(=O)c1cccc(F)c1` [Compound 472], the IC50 was 478 ± 4.8 nM.
